Laboratory results from patent US7205140B2, “Nucleotide sequence for creatinine deiminase and method of use” (CampusGen GmbH, priority 2003, dated 2007).

Tests used:
[1] = system: purified heterologously expressed creatinine deiminase from Tissierella creatinini; test: Interference studies: compound added to the reaction mixture, creatinine deiminase activity determined (coupled optical test); format: biochemical; settings: for Maximum concentration without interference: compound added to standard reaction mixture, creatinine deiminase activity
Source text: A technique for specifically measuring the creatinine concentration of a sample includes a simple indicator reaction step is provided, whereby no complicated auxiliary measurement reactions are necessary. […] Therefore, the subject creatinine deiminase polypeptide specifically and preferentially interacts with creatinine also in presence of other substrates with high specificity, without undue interference from other molecules which would otherwise compromise the accuracy of the measured value for the creatinine concentration in the sample.
(§1) The activity of the purified recombinant enzyme was determined using a modified enzymatic method developed by Bergmeyer (Bergmeyer, H. U. (1985), Methods of enzymatic analysis 8: 488–507). This method includes the measuring of free ammonia produced during a creatinine deiminase reaction via a coupled optical test, by measuring the […] of NADH consumed by the free ammonia at […] and/or 365 nm. The initial reaction comprised the following concentrations in a final volume of 0.6 ml: TEA buffer 0.11 mol/l, pH 8.6; creatinine 1.5 mmol/l; ADP 1.11 mmol/l; DTE 1 mmol/l; NADH 0.11 mmol/l; 2-oxoglutarate 11 mmol/l; glutamate dehydrogenase 8 U/ml. After incubating the reaction components (5 min at 37° C.), 0.01 ml of the purified recombinant enzyme was transferred to a cuvette and placed into a photometer for observing the extinction acceptance reaction at 340 nm. One enzyme unit was determined to catalyze the degrading of 1 μmol creatinine/min at 37° C.
A series of interference studies was performed using the purified and expressed creatinine deiminase polypeptide in the presence of the different serum compounds. The compound was provided to the standard reaction mixture and the creatinine deiminase activity was determined using the methods described above.

[2] = Enzyme activity of recombinant creatinine deiminase (coupled optical test / Jaffé method); format: biochemical
Method: The heterologous expression of an active creatinine deiminase derived from T. creatinini in E. coli (from the recombinant cell extract) was analyzed using gel electrophoresis (FIG. 8) and by determining the enzymatic activity in the cell-free raw extracts. […] Additionally, a band for the purified creatinine deiminase appeared at this same distance of 300 kDa (see FIG. 8, lanes 3 and 5), and likewise a similar band appeared in the raw extract of T. creatinini (FIG. 8, lane 2). The predicted size for creatinine deiminase (300 kDa) is well within range of the known value (288 kDa) as determined by Gottschalk et al. 1991 (supra). The specific activity of the recombinant creatinine deiminase in the cell-free extract was determined to be about 10.2 U/mg.
Heterologous sequences expressing creatinine deiminase (EC 3.5.4.21), as derived from T. creatinini, were also purified according to methods described by Gottschalk et al. 1991 (supra). The creatinine deiminase protein was purified from 5 g of cells using ammonium sulphate precipitation and chromatography to apparent homogeneity using phenylsepharose and DEAE-Sepharose CL6B (see FIG. 9). The specific activity of the purified recombinant enzyme was determined to be 1423 U/mg (see Table 2). The enzyme was suspended in a potassium phosphate buffer (KPP; pH 7.65, 50% Glycerin) and stored at −20° C. in. The purification steps are described as follows:
as §1

[3] = Storage stability of the purified enzyme in dialysis buffer; format: physicochemical; settings: in the dialysis buffer for several months
Method: These samples were dialyzed using several rounds of fresh buffer (0.05 mol/l potassium phosphate, pH 7.65/glycerine, 1:2 v/v) at 4° C. until ammonia could no longer be detected.
The purified enzyme remained stable in the dialysis buffer for several months, experiencing a loss of activity of 9.1%. The optimal pH value for the purified enzyme, when suspended in phosphate and TEA buffers, was within the range of 8.5–8.75, with maximum activity measured at 47° C.

Molecule	Maximum concentration without interference [1] [mg/L]	further results
CC(=O)CC(=O)O [Acetoacetate]	7.8	
CC(C)=O [Acetone]	2000	
CN[C@H](CC(C)C)C(=O)N[C@H]1C(=O)N[C@@H](CC(N)=O)C(=O)N[C@H]2C(=O)N[C@H]3C(=O)N[C@H](C(=O)N[C@H](C(=O)O)c4cc(O)cc(O)c4-c4cc3ccc4O)[C@H](O)c3ccc(c(Cl)c3)Oc3cc2cc(c3O[C@@H]2O[C@H](CO)[C@@H](O)[C@H](O)[C@H]2O[C@H]2C[C@](C)(N)[C@H](O)[C@H](C)O2)Oc2ccc(cc2Cl)[C@H]1O [Vancomycin]	288	
N[C@@H](Cc1c[nH]cn1)C(=O)O [Histidine]	2250	
COc1cc(Cc2cnc(N)nc2N)cc(OC)c1OC [Trimethoprime]	46	
C[C@H](CS)C(=O)N1CCC[C@H]1C(=O)O [Captopril]	83	
NC[C@H](O)c1ccc(O)c(O)c1 [Norepinephrine]	1.5	
CNC[C@H](O)c1ccc(O)c(O)c1 [Epinephrine]	0.05	
C[C@](N)(Cc1ccc(O)c(O)c1)C(=O)O [α-Methyl-Dopa]	107	
O=C(O)C(=O)O [Oxalic acid]	400	
CC(=O)O [Acetic acid]	200	
NS(=O)(=O)c1cc(C(=O)O)c(NCc2ccco2)cc1Cl [Fuoresemide]	4433	
Hemoglobin	0	
Nc1nc(=O)[nH]cc1F [5-Fluorocytosine]	1000	
O=C(O)c1cc(/N=N/c2ccc(S(=O)(=O)Nc3ccccn3)cc2)ccc1O [Salazosulphapyridine]	550	
Cc1cc(NS(=O)(=O)c2ccc(N)cc2)no1 [Sulphamethoxazole]	500	
Nc1cc[nH]c(=O)n1 [Cytosine]	2000	concentration without any interference ([1]; as stated in the text for Table 1): up to 2000 mg/ml
CN(CC(=O)O)C(=N)N [Creatine]	2000	
recombinant creatinine deiminase: creatinine deiminase (EC 3.5.4.21) from Tissierella creatinini, heterologously expressed in E. coli; 406 amino acid polypeptide (protein, listed as Tissierella creatinini) MMKKFINAKIYKNNEATEILVEDGKIKEIGNNLADCKEVIDLGGKMVTPPYVDPHLHLDYVYTLAELGKTGAGSGTLFEAIEMWPVFKKTLTVESVKKLALKGVMDEVSQGVQHIRTHIDVTDPKFTGLKAMLEMKEELKDIVDIQIVSFPQQGMYTYKGGRELVEEALKMGADVVGGIPHYEPAREYGEMSVKATVELAMKYDKLIDVHCDETDDPQARFIELLNALVYLEGYGAKTSASHTCSFGSADDSYAYRMIDLFKKSKINFISNPTENAYLQGRHDTYPKRRGLTRVKEFMEHGINVAFAQDSINDPWYPMGNGNMMNILDNGIHLAQIMSPQDIEKDLDLITYNGARCLNIQDKYLLEVGKDSNFIVLNGDSPFDVIRNRANVLACVRKGEFYLSKNQ		Km ([2]; Lineweaver Burke plot analysis): 1100 µM; specific activity of the purified recombinant enzyme ([2]; after phenylsepharose and DEAE-Sepharose CL6B): 1423 U/mg; specific activity in the cell-free extract ([2]; cell-free extract of E. coli DH5α/pKT1): about 10.2 U/mg; optimal pH value ([2]; in phosphate and TEA buffers): 8.5–8.75; Vmax ([2]; per protein): 1467 U/mg; Vmax ([2]; this enzyme preparation): 8.8 U/ml; loss of activity [3]: 9.1%
